Results taken from patent publication US5827245A, “Transdermal therapeutic system comprising the active subtance 17-β-Estradiol (Anhydrous)” (LTS Lohmann Therapie-Systeme GmbH & Co. KG, priority 1992, dated 1998).

Legend:
[1] = short period of time; cited from earlier work
[2] = Thermal stability / conversion of 17-β-estradiol semihydrate to the anhydrous form; type: physicochemical
Method: At room temperature and usual relative humidity of air (20 to 60% relative humidity), 17-β-estradiol is not present in one of the two known modifications (I and II) which are free from crystal water but as a semihydrate (Busetti a. Hospital, Acta Cryst. 1972, B28, 560). Due to the stratified structure of the crystal compound, which is stabilized by hydrogen bridges, and its diffusion density, the hydrate can be heated for a short period of time to temperatures of about 170° C. (Kuhnert-Brandstatter u. Winkler (1976) Scientia Pharmaceutica 44 (3), 177-190) while remaining undecomposed. However, by way of micronization, i.e. increasing the surface of the crystals, it is possible to quantitatively convert 17-β-estradiol semihydrate to its anhydrous form at as low a temperature as about 120° C. According to our own observations, conversion already occurs at about 90° C. where heating is slow (0.2 to 1 K/min) and particularly fine material is used.

C[C@]12CC[C@@H]3c4ccc(O)cc4CC[C@H]3[C@@H]1CC[C@@H]2O [17-β-estradiol semihydrate]
temperature to which the hydrate can be heated while remaining undecomposed [1]: about 170 °C
temperature of quantitative conversion to the anhydrous form ([2]; micronized): about 120 °C
temperature at which conversion already occurs ([2]; slow heating (0.2 to 1 K/min), particularly fine material, own observations): about 90 °C
